Data published in patent publication US20050113450A1, “Antibacterial agents” (priority 2002, published 2005).
≈ marks a conversion by molar mass, not a printed value.

System: SA 9218
Experiment: MIC by standard agar dilution method
Assay type: cell-based
Conditions: Mueller Hinton agar, 10^4 to 10^5 cells per spot, incubated overnight at 35° C., lowest concentration that inhibits visible growth
Method in brief: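 Agar dilution: two-fold compound dilutions mixed into molten Mueller Hinton agar, spots of ~10^4–10^5 cells from 0.5 McFarland suspension diluted 1:20 in TSB. Incubated overnight at 35 °C; MIC is lowest concentration inhibiting visible growth.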

SMILES	MIC [µg/mL]
O=C(Nc1cccc(Cl)c1)Nc1cccc(C(=O)Nc2ccc(Br)cc2C(=O)O)c1 [PHA-708991]	4 (≈ 8.18 µM)
O=C(Nc1ccc(Br)cc1C(=O)O)c1ccc(NS(=O)(=O)c2ccccc2)cc1 [PHA-708994]	8 (≈ 16.8 µM)
O=C(Nc1ccc(Br)cc1C(=O)O)c1ccc(NS(=O)(=O)c2ccc(OC(F)(F)F)cc2)cc1 [PHA-708996]	16 (≈ 28.6 µM)
O=C(Cc1cccs1)Nc1ccc(C(=O)Nc2ccc(Br)cc2C(=O)O)cc1 [PHA-713386]	128 (≈ 279 µM)
O=C(Nc1ccc(Br)cc1C(=O)O)c1cccc(NC(=O)c2ccc([N+](=O)[O-])o2)c1 [PHA-713387]	128 (≈ 270 µM)
O=C(Nc1ccc(Br)cc1C(=O)O)c1cccc(NC(=O)c2sc3ccccc3c2Cl)c1 [PHA-713391]	> 128
O=C(Nc1ccc(Br)cc1C(=O)O)c1ccc(NC(=O)c2sc3ccccc3c2Cl)cc1 [PHA-713392]	> 128
O=C(Nc1ccccc1)Nc1ccc(C(=O)Nc2ccc(Br)cc2C(=O)O)cc1 [PHA-713393]	> 128
N#Cc1cccc(NC(=O)Nc2ccc(C(=O)Nc3ccc(Br)cc3C(=O)O)cc2)c1 [PHA-713395]	> 128
O=C(Nc1ccc(Br)cc1C(=O)O)c1cccc(NC(=S)Nc2cc(Cl)cc(Cl)c2)c1 [PHA-713396]	8 (≈ 14.8 µM)
CC(=O)c1ccc(NC(=O)Nc2cccc(C(=O)Nc3ccc(Br)cc3C(=O)O)c2)cc1 [PHA-713401]	32 (≈ 64.5 µM)
COc1cc(NC(=S)Nc2cccc(C(=O)Nc3ccc(Br)cc3C(=O)O)c2)cc(OC)c1OC [PHA-713406]	64 (≈ 114 µM)
CC(=O)c1cccc(NC(=S)Nc2cccc(C(=O)Nc3ccc(Br)cc3C(=O)O)c2)c1 [PHA-713408]	64 (≈ 125 µM)
O=C(Nc1ccc(Br)cc1C(=O)O)c1cccc(NS(=O)(=O)c2ccc(Cl)c(Cl)c2)c1 [PHA-713410]	1 (≈ 1.84 µM)

Second part, the compound after the results:

MIC [µg/mL]	SMILES
32 (≈ 70.4 µM)	O=C(Nc1ccccc1)Nc1cccc(C(=O)Nc2ccc(Br)cc2C(=O)O)c1 [PHA-708988]
8 (≈ 16.3 µM)	O=C(Nc1cccc(C(=O)Nc2ccc(Br)cc2C(=O)O)c1)Nc1ccc(F)cc1F [PHA-708989]
8 (≈ 16.7 µM)	N#Cc1cccc(NC(=O)Nc2cccc(C(=O)Nc3ccc(Br)cc3C(=O)O)c2)c1 [PHA-708990]
4 (≈ 7.99 µM)	CSc1cccc(NC(=O)Nc2cccc(C(=O)Nc3ccc(Br)cc3C(=O)O)c2)c1 [PHA-708992]
4 (≈ 8.06 µM)	CC(=O)c1cccc(NC(=O)Nc2cccc(C(=O)Nc3ccc(Br)cc3C(=O)O)c2)c1 [PHA-708993]
0.125 (≈ 0.223 µM)	O=C(Nc1ccc(Br)cc1C(=O)O)c1cccc(NS(=O)(=O)c2ccc(OC(F)(F)F)cc2)c1 [PHA-708995]
8 (≈ 14.7 µM)	O=C(Nc1ccc(Br)cc1C(=O)O)c1ccc(NS(=O)(=O)c2ccc(Cl)c(Cl)c2)cc1 [PHA-708997]
> 128	O=C(Nc1cccc(C(=O)Nc2ccc(Br)cc2C(=O)O)c1)c1ccc(Cl)nc1 [PHA-713389]
> 128	O=C(Nc1ccc(C(=O)Nc2ccc(Br)cc2C(=O)O)cc1)c1ccc(Cl)nc1 [PHA-713390]
128 (≈ 261 µM)	O=C(Nc1ccc(C(=O)Nc2ccc(Br)cc2C(=O)O)cc1)Nc1ccc(F)cc1F [PHA-713394]
> 128	O=C(Nc1ccc(C(=O)Nc2ccc(Br)cc2C(=O)O)cc1)Nc1cc(Cl)cc(Cl)c1 [PHA-713397]
4 (≈ 7.71 µM)	COc1ccc(Cl)cc1NC(=O)Nc1cccc(C(=O)Nc2ccc(Br)cc2C(=O)O)c1 [PHA-713398]
16 (≈ 29.3 µM)	O=C(Nc1ccc(Oc2ccccc2)cc1)Nc1cccc(C(=O)Nc2ccc(Br)cc2C(=O)O)c1 [PHA-713399]
16 (≈ 29.3 µM)	O=C(Nc1ccc(Oc2ccccc2)cc1)Nc1ccc(C(=O)Nc2ccc(Br)cc2C(=O)O)cc1 [PHA-713400]
64 (≈ 124 µM)	O=C(Nc1ccc(Br)cc1C(=O)O)c1ccc(NC(=S)Nc2ccc([N+](=O)[O-])cc2)cc1 [PHA-713403]
128 (≈ 238 µM)	O=C(Nc1ccc(Br)cc1C(=O)O)c1cccc(NC(=S)Nc2ccccc2C(F)(F)F)c1 [PHA-713405]
32 (≈ 62 µM)	CSc1cccc(NC(=S)Nc2cccc(C(=O)Nc3ccc(Br)cc3C(=O)O)c2)c1 [PHA-713407]
1 (≈ 2.1 µM)	O=C(Nc1ccc(Br)cc1C(=O)O)c1cccc(NS(=O)(=O)c2ccccc2)c1 [PHA-713409]
